Laboratory results as given in paper PMC10745061 (Marine Drugs, 2023).
Where two headings read alike, the source gives them in different places. Where a SMILES comes first, the peptide text is derived from it. Bridges are numbered along the chain shown (N, C = ends).

Legend:
Escherichia coli ML-35p = settings: salt-containing MHB, FBS at different concentrations up to 15%
Source text: The results were expressed as the median values determined on the basis of at least three independent experiments performed in triplicate.

[1] = 25% human serum in PBS pH 7.4, 37 °C; for a/b (%), ratio of the peptide forms in serum: RP-HPLC, ratio estimated from MALDI-TOF MS, two independent experiments
E. coli = type: cell-based, Escherichia coli; settings: panel incl. clinically isolated UPEC, MDR and XDR strains; regardless of resistance profile, biofilm production, presence of serum
Procedure: The clinical isolates were collected and provided by Sechenov First Moscow State Medical University hospital and the State Collection of Pathogenic Microorganisms “Obolensk” (SRCAMB collection). The resistant to conventional antibiotics strains were defined as extensively drug resistant (XDR), according to [47]. Bacterial test cultures were grown in a Mueller–Hinton broth (MHB, Sigma) at 37 °C to mid-log phase and then diluted with the 2× MH medium supplemented with 1.8% NaCl (and, optionally, with fetal bovine serum (FBS, Gibco) at different concentrations) or without salt so that to reach a final cell concentration of 10^6 CFU/mL. Moreover, 50 μL of the obtained bacterial suspension were added to aliquots of 50 μL of the peptide solutions serially diluted with sterilized 0.1% bovine serum albumin (BSA) in 96-well flat-bottom polystyrene microplates (Eppendorf #0030730011). After incubation for 24 h at 37 °C and 950 rpm on the plate thermoshaker (Biosan), minimum inhibitory concentrations (MIC) were determined as the lowest peptide concentrations that prevented growth of a test microorganism observed as visible turbidity. […] In the case of Mycobacterium smegmatis, MICs were determined in the Middlebrook 7H9 medium (HiMedia). The results were expressed as the median values determined on the basis of at least three independent experiments performed in triplicate.

[2] = system: E. coli K12 SBS 1936 biofilm; assay: Effect on established biofilm, MTT assay; type: cell-based, Escherichia coli; settings: at 2 × MIC (4 μM), 24 h pre-formed biofilm, 16 h treatment in LB, 37 °C
Procedure: Bacterial biofilms play an important role in UTIs, being responsible for their persistence. Therefore, the eradication of mature biofilms is an extremely challenging task because high concentrations or doses of antibacterial agents are required. Here, the ability of HfBRI-25 to disrupt established biofilms was evaluated as a number of viable bacteria in biofilm using the MTT assay. According to our previous data, E. coli K12 SBS 1936 was chosen as a strong biofilm-producer that can form it in different media.
E. coli K12 SBS1936 was grown in LB broth overnight at 37 °C and diluted in the same media to obtain 1 × 10^6 CFU/mL. A total of 100 μL of bacterial suspension was added to each well of the 96-well polystyrene plate and grown at 32 °C and 120 rpm for 24 h. The wells were washed twice with sterile water to remove non-adherent cells. In parallel, 100 μL of peptide or ciprofloxacin solutions, serially diluted in LB medium using a separate 96-well polystyrene plate, were added to each well with pre-formed biofilm and incubated at 37 °C and 180 rpm for 16 h. Biofilm viability was assessed by using the MTT reagent (Sigma). […] Absorbance of each well was measured at 570 nm. Bacterial survival was calculated as a percentage relative to samples without antimicrobial agent. […]

## CC[C@H](C)[C@@H]1NC(=O)[C@H](Cc2c[nH]c3ccccc23)NC(=O)[C@H](C(C)C)NC(=O)[C@@H]2CSSC[C@H](NC(=O)[C@H](CCCNC(=N)N)NC(=O)[C@H](CCCNC(=N)N)NC(=O)[C@H](C(C)C)NC(=O)[C@H](CCCNC(=N)N)NC(=O)[C@H](CCCNC(=N)N)NC(=O)CNC(=O)[C@H](CC(N)=O)NC(=O)[C@H](C(C)C)NC(=O)[C@H](CO)NC1=O)C(=O)N[C@@H](Cc1c[nH]c3ccccc13)C(=O)NCC(=O)N[C@@H](CO)C(=O)NCC(=O)N[C@H](C(=O)O)CSSC[C@H](NC(=O)CNC(=O)[C@H](CCCNC(=N)N)NC(=O)[C@@H]1CCCN1C(=O)[C@@H](N)CO)C(=O)N[C@@H](Cc1ccccc1)C(=O)N2 [HfBRI-25] (H-SPRGCFCVWISVNGRRVRRCWGSGC-OH; disulfide 5-25, 7-20; N-terminus and C-terminus assumed)
Escherichia coli ML-35p
  MIC in the presence of FBS at different concentrations: 1 µM
[1]; after 1 h of incubation
  Part of the peptide converted into 23-residue form b: More than half
[1]; after 24 h, RP-HPLC peak area, mean of two independent experiments
  Two active forms (a/b) remained intact in serum: more than 80%
[1]; time 1 h
  a/b (%), ratio of the peptide forms in serum: 39%
[1]; time 3 h
  a/b (%), ratio of the peptide forms in serum: 6%
[1]; time 24 h
  a/b (%), ratio of the peptide forms in serum: 0%
E. coli
  MIC value against all tested E. coli strains: 1 to 2 µM
[2]
  Bacterial viability inside established biofilm: minimal residual bacterial viability
